In article PMC9782819, “Ramosin: The First Antibacterial Peptide Identified on Bolitoglossa ramosi Colombian Salamander” (Pharmaceutics, 2022):
Where no end group is shown, it is not given here.

Columns and labels:
[1] = system: Bacillus cereus ATCC 6464; assay: Growth inhibition kinetics (bactericidal or bacteriostatic); type: cell-based; settings: 19 h, peptide 70 μM
Procedure: (§1) To determine the minimum inhibitory concentrations (MICs) of the candidate peptides, the 96-well plate microdilution assay, described by the Clinical and Laboratory Standards Institute (CLSI) and the European Committee on Antimicrobial Susceptibility Testing (EUCAST), was performed. For testing the antimicrobial activity of the candidate peptides, Gram-positive and Gram-negative bacterial strains were used. The strains used were Staphylococcus aureus ATCC 29,213 (S. aureus), Enterococcus faecalis ATCC 29,212 (E. faecalis), Bacillus cereus ATCC 6464 (B. cereus), and Micrococcus luteus ATCC 9341 (M. luteus) as Gram-positive, and Escherichia coli ATCC 25,922 (E. coli), Pseudomonas aeruginosa ATCC 27,853 (P. aeruginosa), and Salmonella typhimurium ATCC 14,028 (S. typhimurium) as Gram-negative. The bacteria were cultivated in tryptic soy agar (TSA) until the time of carrying out the antimicrobial activity assay. For this assay, 3 to 5 colonies were taken from the agar and grown to exponential phase in tryptic soy broth (TSB) liquid medium defined as a 0.5 McFarland value measured with a densichek plus (Biomérieux). Bacteria were diluted to a final concentration of 5 × 10^5 CFU/mL. […] The plates were incubated for 18 h at 37 °C, and subsequently the absorbance was read in a MultiSkan GO (Thermofisher, Waltham, MA, USA) at 600 nm. […] To determine if the effect of the peptides was bactericidal or bacteriostatic, once the absorbance reading was completed, 10 μL were taken from each well where bacterial growth inhibition was observed and they were sown in TSA agars and incubated at 37 °C for 24 h. […]
(§2) All bacterial strains used were ATCC reference strains. The antibacterial activity of Ramosin was evaluated using the Wiegand et al. protocol. […] Two types of tests were carried out: the endpoint, in which the absorbance of the plates was read after 19 h of treatment, and kinetics, in which plate readings were made every hour to determine whether the effect of the peptides was bactericidal or bacteriostatic.
(§3) In addition to absorbance measurement, a bacterial growth test was performed. […]

[2] = system: Pseudomonas aeruginosa ATCC 27,853; assay: as above; type: cell-based; settings: 19 h, peptide 70 μM
Procedure: as §1, §2, §3

[3] = system: Escherichia coli ATCC 25,922; assay: as above; type: cell-based; settings: 19 h, peptide 70 μM
Procedure: as §1, §2, §3

[4] = system: Staphylococcus aureus ATCC 29,213; assay: Broth microdilution endpoint assay / MIC; type: cell-based; settings: 19 h treatment, absorbance 600 nm, p > 0.005
Procedure: (§4) To determine the minimum inhibitory concentrations (MICs) of the candidate peptides, the 96-well plate microdilution assay, described by the Clinical and Laboratory Standards Institute (CLSI) and the European Committee on Antimicrobial Susceptibility Testing (EUCAST), was performed. For testing the antimicrobial activity of the candidate peptides, Gram-positive and Gram-negative bacterial strains were used. […] For this assay, 3 to 5 colonies were taken from the agar and grown to exponential phase in tryptic soy broth (TSB) liquid medium defined as a 0.5 McFarland value measured with a densichek plus (Biomérieux). […] The plates were incubated for 18 h at 37 °C, and subsequently the absorbance was read in a MultiSkan GO (Thermofisher, Waltham, MA, USA) at 600 nm. […] To determine if the effect of the peptides was bactericidal or bacteriostatic, once the absorbance reading was completed, 10 μL were taken from each well where bacterial growth inhibition was observed and they were sown in TSA agars and incubated at 37 °C for 24 h. […]
(§5) All bacterial strains used were ATCC reference strains. The antibacterial activity of Ramosin was evaluated using the Wiegand et al. protocol. […]
as §3

[5] = system: Staphylococcus aureus ATCC 29,213; assay: Growth inhibition kinetics (bactericidal or bacteriostatic); type: cell-based; settings: 19 h, peptide 70 μM
Procedure: as §4, §5, §3

[6] = system: Escherichia coli ATCC 25,922; type: cell-based; settings: ATCC 25, 18 h
Procedure: as §4, §5, §3

[7] = system: human red blood cells
Procedure: The hemolytic activity of the peptide was determined as previously reported [45]. In brief, its hemolytic activity of the peptide was evaluated by determining the amount of the released hemoglobin from a 4% v/v suspension of fresh human red blood cells (RBCs). In 96-well plates, 65 μL of the RBCs suspension and 65 μL of each peptide dilution were mixed. […] Plates were incubated at 37 °C for two hours, then centrifuged at 2500× g for 5 min. A total of 80 μL of supernatant was recovered and transferred to another 96-well plate, and absorbance at 540 nm was measured in a MultiSkan GO (Thermofisher, Waltham, MA, USA). The percentage of hemolysis was calculated according to the following formula [45]: (1) %Hemolysis=OD450 in the peptide suspension−OD450 negative control in PBS/OD450 of positive control−OD450 negative control in PBS×100

Buforin II
effect on B. cereus at 70 μM [1]: failed to inhibit the growth
effect on P. aeruginosa at 70 μM [2]: bactericidal effect
effect on E. coli at 70 μM [3]: bactericidal effect
effect on viability of S. aureus, endpoint assay (peptide control) [4]: did not have a statistically significant effect
effect on S. aureus at 70 μM [5]: failed to inhibit the growth

GWFSLVRKVVGGVGSL-NH2 [Ramosin]
MIC for E. coli [6]: 17.5 µM
non-hemolytic concentration relative to MIC [7]: up to four times its MIC
